Measurements taken from US11084836B2, “Compositions useful in therapy of autophagy-related pathologies, and methods of making and using the same” (The University of Toledo, priority 2016, dated 2021).
Entries after “also recorded” stand apart in the source; their conditions may differ.

Legend:
SHSY5Y neurons = conditions: cited from earlier work
[1] = system: permanent middle cerebral artery occlusion (pMCAO); conditions: after pMCAO; cited from earlier work
RG2 glioma cells [2] = assay: Autophagic flux assay: LC3-I to LC3-II conversion in the presence of bafilomycin-A1, western blot; assay type: cell-based, rat; conditions: for stimulation of autophagy / autophagic flux (LC3-II increase in presence of bafilomycin-A1): 4 h, 50 nM bafilomycin-A1; for potency of autophagy stimulation relative to LKE (ratio of LC3-II band densities): western blot densitometry
Protocol: In the assay, cells are treated with subtoxic concentrations of bafilomycin-A, which blocks lysosomal acidification. This prevents autophagosome fusion with lysosomes at a specific point. […] Then, autophagy flux is measured by the conjugation of phosphatidylethanolamine to LC3-I, yielding an electrophoretically separable LC3-II. LC3-II acts as a link between nascent autophagosomes and cargo being directed into these structures. The autophagy intermediate protein LC3-II (a phosphatidylethanolamine-conjugated form of LC3-I) is measured by western blot. An autophagy enhancer will increase LC3-II in the presence of bafilomycin, whereas a compound that inhibits autophagy completion will not do so. Thus, the LC3A-I to LC3A-II conversion in the presence of bafilomycin-A1 constitutes a valid measure of autophagy.
Autophagy is a complex process involving many different protein components, but predominant amongst its regulatory elements are the mammalian target of rapamycin complex-1 (mTORC1) and unc-51-like kinase-1 (ULK1, FIG. 14). mTORC1 is itself a kinase that inhibits ULK1. When nutrients and cell energy are limiting, mTORC1 is suppressed by the coordinated actions of tuberous sclerosis complex (TSC) proteins 1 and 2 (TSC1/2) and Rheb (Ras homolog enriched in the brain). This allows disinhibition of ULK1, which then associates with beclin-1 protein to form pre-autophagosomal structures. Autophagosomes mature in a process marked by phosphatidylethanolamine conjugation to microtubule associated protein 1 light chain 3 (LC3-I→LC3-II conversion). After lysosomal fusion, the autophagy components are turned over and the cycle completes. One of the most reliable ways to determine whether a treatment increases true autophagy flux is to measure LC3-I to LC3-II conversion in the absence and presence of the vacuolar ATPase inhibitor bafilomycin-A1. Bafilomycin neutralizes lysosomal pH, preventing autophagosome-lysosomal fusion, and traps LC3-II at a point prior to its turnover in mature autophagolysosomes.
The cells were then incubated for an additional 4 h. At termination, the cell culture medium was removed, cells were washed with PBS and lysed on ice in Pierce RIPA buffer containing protease and phosphatase inhibitors.
An increase in the intensity of this band in the presence of bafilomycin-A1 indicates increased autophagic flux.
RG2 glioma cells (American Tissue Type Collection, ATTC, Rockville Md. USA) were treated for 4 h with 50 nM bafilomycin-A1 (previously dissolved to 1000× final concentration in dimethylsulfoxide). Thirty minutes after addition of bafilomycin, cells were treated with test agents at 100× final concentration. Cells were lysed in RIPA buffer containing protease and phosphatase inhibitors. Protein concentration was assayed and normalized to constant values (typically 5-7 mg/mL). Proteins were electrophoresed across 4-20% polyacrylamide gels and wet blotted onto polyvinylidine difluoride (PVDF) membranes. Proteins were blotted with commercially available antibodies against LC3.

cells = conditions: H2O2 or t-butyl hydroperoxide; cited from earlier work
[3] = system: SOD1^G93A mouse model of amyotrophic lateral sclerosis; conditions: cited from earlier work
[4] = system: 3×Tg-AD mouse model of Alzheimer's disease; conditions: cited from earlier work
ULK1 system = assay: ULK1 / ULK1(p757) autophagy stimulation assay (mTOR pathway), western blot; assay type: cell-based, rat; conditions: RG2 cells, 24 h; read-out: EC50 on the ULK1 system (ULK1 increase and ULK1(p757) decrease)
Source text: This technique has been documented in the literature for use in the comparison of the potency of individual compounds, relative to a recognized standard, and this technique has become a standard method of autophagy analysis. In addition to quantitating the stimulation of autophagy for the compounds, relative to LKE, because it is cell based, this assay also provides evidence that the compounds can permeate cell membranes. This affords valuable information for the comparison of individual compounds to stimulate autophagy, and will allow them to be ranked for use in the determination of a structure activity relationship (SAR). […] For validation purposes, a second, quantitative autophagy stimulation assay was utilized. […] This second assay provides validation for the LC3 assay.
Western Blotting: The proteins were electrophoresed and wet-blotted to polyvinylidine difluoride membranes, blocked overnight in 4% bovine serum albumin, and developed using antibodies obtained from Cell Signaling Technology (LC3A: cat #. 4599; ULK1: cat #. 8054, ULK1(p757): cat #. 6880).

CRMP2 = conditions: CRMP2-dependent fashion; cited from earlier work
[5] = measurement of brain LKE levels and animal studies
C6 glioma tumor = conditions: C6 glioma xenograft into rat cortices; cited from earlier work
neurons = conditions: glutamate toxicity; cited from earlier work
[6] = cell systems and C. elegans; cited from earlier work
microglia = conditions: cell systems; cited from earlier work
[7] = Stability of the isolated solid under high vacuum; assay type: physicochemical; conditions: isolated white solid, at least overnight
Protocol: FIGS. 15A-15B show the ^1H NMR spectrum of 2-butyl-LK-P, with and without peak assignments. FIGS. 16A-16B show the ^1H NMR spectrum of 2-butyl-LK-P, with integration values and with and without peak assignments. ^1H NMR (CDCl3) δ 3.96 (br. s., 1H), 3.05 (d, J=12.4 Hz, 1H), 2.84-2.66 (m, 1H), 2.36 (br. s., 2H), 1.56-1.32 (m, 2H), 1.24 (d, J=6.2 Hz, 2H), 0.89-0.77 (m, 3H); HRMS (ESI) m/z calcd for C9H17NO5PS [M+H]^+ 282.0565, found 282.0645.
Briefly, to a solution of DEIVP (500.0 mg, 2.222 mmol), in a biotage microwave vial, was added bromotrimethylsilane (1.333 mL, […]). The tube was purged with argon, covered and heated at 400 W for 10 min. The contents of the vial were transferred to a round bottom flask, the vial was washed with dichloromethane (3×3 mL) which was transferred to the flask. The solvent and excess bromotrimethylsilane were removed in vacuo. To the flask was added dichloromethane (10 mL), which was subsequently removed in vacuo to aid in the removal of any residual bromotrimethylsilane. To the flask was added dichloromethane (9 mL) and, to this solution, with stirring, was added a solution of bromine ([…]) in dichloromethane (3 mL). The resultant solution was heated to reflux for 15 min and the solvent was removed in vacuo. […]

EOC-20 microglia = assay: TNFα-stimulated microglial M1 activation, nitrite accumulation in culture medium; assay type: cell-based; conditions: cytokine (TNFα)-stimulated EOC-20 microglia, side-by-side
Protocol: Reaction completion was monitored by thin-layer chromatography and product identity was confirmed by mass spectrometry (FIG. 31A). […] M1 activation of EOC-20 cells was assessed by measuring TNFα-stimulated nitrite production.

RG2 glioma cells [8] = assay: Proliferative capacity of glioma cells, tetrazolium reduction assay; assay type: cell-based, rat
Protocol: FIG. 37: Graph showing a reduction in proliferative capacity of RG2 glioma cells exposed to 2-n-hexyl-LKE-P. Glioma cells were plated at low density and treated with the indicated concentration of compound for 24 or 48 h, at which time relative cell number was estimated using a tetrazolium reduction assay.
Biomarkers of autophagy have been positively correlated with relatively better prognosis (longer patient lifespan) in humans suffering from high grade glioma. Accordingly, phosphonate analogs were tested for ability to reduce replicative capacity in RG2 glioma cells wherein the compounds increase autophagy. Cells were plated at low density (approximately 25,000 cells/[…]) using general cell culture methods, and treated with logarithmic dilutions of test agent. After 24 or 48 hours, cell number was estimated by a tetrazolium reduction assay using a commercially available kit (Promega Aqueous OneStep™). […] By 48 h the cells had largely achieved confluence and became somewhat contact inhibited, thus reducing the difference between control and treatment groups.

## CCOC(=O)C1CSC=C(C(=O)O)N1 (stereo not shown) [LKE, lanthionine ketimine-ethyl ester]
SHSY5Y neurons
  amyloid reducing activity: decreasing production of native Aβ(1-40)
[1]
  infarct volume and functional recovery: decreases infarct volume and improves functional recovery
RG2 glioma cells [2]
  stimulation of autophagy / autophagic flux (LC3-II increase in presence of bafilomycin-A1): enter into cells and stimulate autophagy to varying degrees
cells
  antioxidant activity: protecting cells against H2O2 or t-butyl hydroperoxide
[3]
  lifespan and motor function: increases lifespan and slows decline of motor function
[4]
  amyloid burden, phospho-tau, microglial activation, cognitive decline: decreases amyloid burden inside neurons and in plaques, decreases phospho-tau accumulation, decreases microglial activation, and slows cognitive decline
ULK1 system
  EC50: ~50 nM
CRMP2
  neurotrophic activity: potentiating growth factor-dependent neurite growth
[5]
  βββ penetrability: good βββ penetrability
C6 glioma tumor
  tumor growth: slows growth of C6 glioma tumor
neurons
  anti-excitotoxin activity: protecting neurons from glutamate toxicity
[6]
  axonal transport enhancement: potentiating anterograde trafficking and delivery of synaptic proteins to the distal axon
microglia
  anti-neuroinflammatory activity: decreasing microglial response to inflammatory cytokines

## CC(C)C1=C(P(=O)(O)O)N[C@H](C(=O)O)CS1 [2-isopropyl-LK-P, 2-isopropyl lanthionine ketimine phosphonate]
RG2 glioma cells [2]
  stimulation of autophagy / autophagic flux (LC3-II increase in presence of bafilomycin-A1): stimulates autophagy in RG2 cells at low micromolar concentrations; also recorded: enter into cells and stimulate autophagy to varying degrees; also recorded: increase autophagic flux
  potency of autophagy stimulation relative to LKE (ratio of LC3-II band densities): comparable activity
RG2 glioma cells [2]; at 10 μM
  potency on autophagic flux relative to LK: clearly more potent at 10 μM than LK was
RG2 glioma cells [2]; at 10 mM (FIG. 6 legend)
  potency on autophagic flux relative to LK: clearly was more potent at 10 mM than was LK
RG2 glioma cells [2]; visual inspection of western blot
  potency of autophagy stimulation relative to LK: much more potent stimulator of autophagy than LK
[7]
  stability to high vacuum pressures: stable to high vacuum pressures at least overnight without visual or spectral decomposition

## CCOC(=O)[C@@H]1CSC(C(C)N2CCCC2=O)=C(C(=O)O)N1 (single isomer, unassigned) [NVP-LKE]
EOC-20 microglia
  suppression of nitric oxide (nitrite) production / microglial activation relative to LKE: maintains or gains potency over LKE; also recorded: equal or superior to LKE; also recorded: as potent or more potent than LKE
RG2 glioma cells [2]
  stimulation of autophagy / autophagic flux (LC3-II increase in presence of bafilomycin-A1): stimulates autophagy in RG2 cells
  potency of autophagy stimulation relative to LKE (ratio of LC3-II band densities): better autophagy activation than LKE; also recorded: more potent autophagy stimulator than LKE

## O=C(O)C1=CSC[C@@H](C(=O)O)N1 [LK, (5R)-3,5,-dicarboxy-1-thia-4-aza-2-cyclohexene, reference compound]
RG2 glioma cells [2]
  stimulation of autophagy / autophagic flux (LC3-II increase in presence of bafilomycin-A1): increase autophagic flux

## CCCCCCC1=C(P(=O)(O)O)N[C@H](C(=O)OCC)CS1 [2-n-hexyl-LKE-P]
RG2 glioma cells [8]; 48 h
  cell number: dose-dependent reduction in the cell number
RG2 glioma cells [8]; first 24 h
  replication of cultures: replicated more slowly

## CCCCC1=C(P(=O)(O)O)N[C@H](C(=O)O)CS1
RG2 glioma cells [2]
  stimulation of autophagy / autophagic flux (LC3-II increase in presence of bafilomycin-A1): enter into cells and stimulate autophagy to varying degrees
  potency of autophagy stimulation relative to LKE (ratio of LC3-II band densities): comparable activity
RG2 glioma cells [2]; listed as 2-butyl-LK-P
  potency of autophagy stimulation relative to LKE (ratio of LC3-II band densities): more effective at inducing autophagic flux than, inter alia, LK-E
[7]
  stability to high vacuum pressures: stable to high vacuum pressures at least overnight without visual or spectral decomposition

## CC(C)C1=C(P(=O)(O)O)NCCS1 [2-isopropyl AECK-P, AminoEthyl Cysteine Ketimine-Phosphonate]
RG2 glioma cells [2]
  stimulation of autophagy / autophagic flux (LC3-II increase in presence of bafilomycin-A1): can enter cells to elicit a response
  potency of autophagy stimulation relative to LKE (ratio of LC3-II band densities): comparable activity
